Measurements published in article PMC4790851, “Iminosugars Inhibit Dengue Virus Production via Inhibition of ER Alpha-Glucosidases—Not Glycolipid Processing Enzymes” (PLoS Neglected Tropical Diseases, 2016).
“Also recorded” adds a separate entry of the source.

System: DENV2 D2S10
Assay: Lethal mouse model of antibody-enhanced DENV infection
Assay type: in vivo, AG129 mice
Conditions: 33.3 mg/kg/dose t.i.d. p.o.
Method: Virus titers of samples isolated from infected mice were obtained by BHK-21 plaque assays in accordance with previous protocols. BHK-21 cells were seeded in 12-well plates (3 x 10^5 cells/well) in α-MEM medium containing 5% HI-FBS for 3 hours (37°C, 5% CO2). Medium was removed, log10 serial dilutions of virus in α-MEM with 2% HI-FBS were added, and cells were incubated for an additional 2 hours (37°C, 5% CO2). Following incubation, 1.5 ml of α-MEM containing 5% (v/v) HI-FBS and 1% (w/v) low-melting point tissue culture grade agarose (Sigma) was added to each well and allowed to solidify at room temperature before further incubation (37°C, 5% CO2) for 5 days. Plaques were visualised after fixation in 10% formaldehyde (1 hour, room temperature) and removal of the agarose plug by staining briefly (approximately 30 seconds) with 1% (w/v) crystal violet (Sigma) in 20% (v/v) ethanol (EtOH, Sigma). Concentrations were normalised to tissue mass (in grams) or serum volume (in ml) as appropriate.
For animal experiments, multiplex qRT-PCR was conducted on all tissue isolates and plasma as described for in vitro experiments. Rodent glyceraldehyde 3-phosphate dehydrogenase (GAPDH) control (Life Technologies #4308313) containing a VIC reporter dye was attached to a TAMRA (tetramethylrhodamine) quencher, and experimental DENV NS5-specific target was labelled with FAM (6-fluorescein amidite) reporter dyes with a TAMRA quencher. GAPDH primers were used at 10 μM and probe at 20 μM. In the case of DENV qRT-PCR, quantitation using a DENV2-specific primer/probe set directed to NS5 was conducted using all primers and probe at 10 μM final concentration. Thermocycling was conducted as for in vitro experiments. Viral RNA from tissues was quantified by ΔΔCt method, whereas plasma samples were quantified relative to a standard curve as for in vitro experiments. Samples were read in technical duplicate and 95% confidence intervals were determined based on biological and technical variation and graphed using Prism 6 (GraphPad Software, Inc.).
All experimental procedures were pre-approved by the UC Berkeley Animal Care and Use Committee and were performed according to the guidelines of the UC Berkeley Animal Care and Use Committee, the United States Public Health Service, and the USDA Animal Welfare Act. Mice of the 129/Sv background deficient in interferon (IFN)-α/β and -γ receptors (AG129 mice) were infected with DENV under antibody-enhanced conditions as previously described. Mice were primed 24 hours prior to infection with a 5 μg intraperitoneal (i.p.) injection of a pan-flavivirus monoclonal antibody against E protein, 4G2. At t = 0, 10^5 pfu of DENV2 D2S10 was injected intravenously. […]

[1] = serum at 80 h post-infection, AG129 mice, listed as celgosivir

`CCCC(=O)O[C@H]1CN2CC[C@H](O)[C@@H]2[C@@H](O)[C@@H]1O` [Celgosivir, 6-O-butanoyl-castanospermine] was tested, and the “viral RNA levels in spleen” value (80 h post-infection, qRT-PCR normalized to GAPDH) was “enhanced viral RNA levels by approximately two orders of magnitude”, the “infectious virus level in serum (BHK-21 plaque assay)” value (serum at 80 h post-infection, AG129 mice) was “reduced the average viral titer, but the differences were not statistically significant” and the “circulating viral load (viral RNA, qRT-PCR)” value [1] was “significantly reduced; also recorded: statistically significant reduction in viral RNA load”. The “infectious virus level in serum (BHK-21 plaque assay)” value [1] was “not statistically significant”.
